# Reference: patent US20180117249A1, “Warburg Effect Targeted Chemotherapy Apparatus” (Cure Cancer Worldwide LLC, priority 2010, published 2018)
# Legend:
# [1] = cited from earlier work
# [2] = tested on: breast cancer cells in culture; details: methotrexate with insulin vs methotrexate alone; cited from earlier work
# breast cancer = details: diabetic women taking metformin; diabetic control 8%, non-diabetic control 16%; cited from earlier work
# [3] = tested on: MDA-MB-231 breast cancer cells; details: cells incubated with insulin; cited from earlier work
# [4] = tested on: human esophageal and colonic cancer cells; details: cited from earlier work
# breast cancer cells [5] = details: cells incubated with insulin; cited from earlier work
# [6] = Insulin-induced hypoglycemia safety profile (Xi'an, China); type: in vivo, patients
# Source text: Cure Cancer Worldwide in conjunction with several hospitals in China have been treating patients using a combination of insulin induced hypoglycemia in combination with standard chemotherapy treatments, generally given multiple times in a 3 week window but at 10% the standard dose. The safety of these treatments has been evaluated as well as the side effects.
# breast cancer cells [7] = details: asynchronous population; 37% in controls; cited from earlier work
# [8] = Hypoglycemic glucose clamp in SCID mouse xenograft model; type: in vivo
# Procedure: The glucose clamp technique has been well developed in animals models for the purpose diabetes research. (Ayala, et al., 2011) We have adapted this technique for use in a SCID mouse xenograft model. FIG. 3 gives a schematic of this procedure. Briefly, mice are injected subcutaneously in the hind flank with a standard amount of cancer cells sufficient to cause a tumor to grow. After a few weeks when tumor volume measures around 300-500 mm3, mice undergo jugular vein cannulation. Mice are fasted for 5 hours prior to treatment with chemotherapy drugs. Depending on the pharmacokinetics of the drug, drugs are either given before the start of the glucose clamp or during the clamp procedure to correspond to the maximum effectiveness of the drug during the “hypoglycemia therapeutic window”. Injection pumps containing insulin, glucose and washed erythrocytes from donor mouse blood are connected to a swivel mixer which is in turn connected to the jugular catheters. For the initiation of the hypoglycemic clump, a bolus injection of insulin is given to reduce initial blood glucose levels which typically take around 30 minutes to lower blood glucose. Then a steady state of insulin and glucose is given to maintain blood glucose levels between 30-50 mg/dL for two hours. In practice, blood glucose levels range from 22-51 mg/dl with an average around 34 mg/dL (1.9 mmol/L). […]
# [9] = insulin several hours before 5-FU vs 5-FU without insulin
molecule,measurement,setting,value
"O=CC[C@@H](O)[C@H](O)[C@H](O)CO [2DG, 2-deoxyglucose]",ECG effect,"[1]; Raez, et al., 2013",irregular Electrocardiograph (ECG) heart rhythms
same,main failure point in the clinic,[1]; clinical trials,induced hyperglycemia
CN(Cc1cnc2nc(N)nc(N)c2n1)c1ccc(C(=O)N[C@@H](CCC(=O)O)C(=O)O)cc1 [methotrexate],lowering of methotrexate concentration for same percent cell killing,[2],10000 fold
CN(C)C(=N)N=C(N)N [metformin],pathological complete response (pCR) rate,breast cancer,24%
insulin,increase in the uptake of elipticine,[3],2 fold
same,apoptotic cell populations,[4]; [9],higher percentage of apoptotic cell populations
same,inhibition of cell growth,[4]; [9],greater inhibition of cell growth
same,percent of S-phase cells,[4]; treatment of insulin,increase in the percent of S-phase cells
same,stimulation of uptake of methotrexate,breast cancer cells [5],50%
same,Comas,[6]; 950 insulin injections,0 n
same,Deaths,[6]; 950 insulin injections,0 n
same,Time Interval of Hypoglycemia,[6]; 950 insulin injections,5-25 m
same,Hypoglycemia range,"[6]; insulin induced hypoglycemia with chemotherapy at 10% standard dose, initial blood glucose 3.86-7.95 mmol/l, 950 insulin injections",1.0 to 3.4 mmol/L
same,Conclusion,[6]; insulin-induced hypoglycemia safety profile,safe
same,S-phase fraction,breast cancer cells [7],66%
same,time to lower blood glucose,[8]; bolus injection of insulin at initiation of clamp,around 30 minutes
same,"blood glucose levels, range in practice","[8]; steady state of insulin and glucose for two hours, target 30-50 mg/dL",22 to 51 mg/dL
